# From patent US9695155B2, “Herbicidal substituted pyrimidinyloxy benzene compounds” (E. I. DU PONT DE NEMOURS AND COMPANY, priority 2013, dated 2017)
# Key:
# [1] = tested on: canarygrass; assay: Test D preemergence; assay type: in vivo, Phalaris minor; settings: Phalaris minor, pre-emergence, scale 0-100, read-out: Plant response rating, Canarygrass
# Procedure, shortened: (§1)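 Solvent/surfactant formulations are sprayed pre (silt loam) or post (1–4 leaf plants, 2–18 cm). Plants stay 7–21 days in controlled conditions before a visual 0–100 score is given.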
# [2] = tested on: galium; assay: Test D preemergence; assay type: in vivo, Galium aparine; settings: Galium, pre-emergence, scale 0-100, read-out: Plant response rating, Galium
# Procedure, shortened: as §1
# [3] = tested on: green foxtail; assay: Test D preemergence; assay type: in vivo, Setaria viridis; settings: Setaria viridis, pre-emergence, scale 0-100, read-out: Plant response rating, Foxtail, Green
# Procedure, shortened: as §1
# [4] = tested on: pigweed; assay: Test D preemergence; assay type: in vivo, Amaranthus retroflexus; settings: Amaranthus retroflexus, pre-emergence
# Procedure, shortened: as §1
# [5] = tested on: windgrass; assay: Test D preemergence; assay type: in vivo, Apera spica-venti; settings: Apera spica-venti, pre-emergence
# Procedure, shortened: as §1
# [6] = tested on: chickweed; assay: Test D postemergence; assay type: in vivo, Stellaria media; settings: Stellaria media, post-emergence, scale 0 to 100 (0 no effect, 100 complete control), read-out: Plant response rating, Chickweed
# Procedure, shortened: as §1
# [7] = tested on: chamomile; assay: Test D postemergence; assay type: in vivo, Matricaria inodora; settings: Tripleurospermum inodorum, post-emergence, scale 0 to 100 (0 no effect, 100 complete control), read-out: Plant response rating, Chamomile
# Procedure, shortened: as §1
# [8] = tested on: speedwell; assay: Test D postemergence; assay type: in vivo, Veronica persica; settings: Veronica persica, post-emergence, scale 0 to 100 (0 no effect, 100 complete control), read-out: Plant response rating, Speedwell
# Procedure, shortened: as §1
# [9] = tested on: spring barley; assay: Test D postemergence; assay type: in vivo, Hordeum vulgare; settings: Hordeum vulgare, post-emergence, Postemergence, scale 0 to 100 (0 no effect, 100 complete control), read-out: Plant response rating, Barley, Spring
# Procedure, shortened: as §1
# [10] = tested on: winter barley; assay: Test D postemergence; assay type: in vivo, Hordeum vulgare; settings: Hordeum vulgare, post-emergence, Postemergence, scale 0 to 100 (0 no effect, 100 complete control), read-out: Plant response rating, Barley, Winter
# Procedure, shortened: as §1
# [11] = tested on: waterhemp_RES2 (ALS & HPPD resistant common waterhemp); assay: Test E postemergence; assay type: in vivo, Amaranthus rudis; settings: Amaranthus tuberculatus, post-emergence, read-out: Plant response rating, Waterhemp_RES2
# Procedure, shortened: (§2)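 Compound in a non-phytotoxic solvent mixture with surfactant was applied preemergence to seeds in silt loam soil, or postemergence to plants 2 to 18 cm tall grown in peat-based potting medium. Plants were kept in a greenhouse for 14 to 21 days, then rated visually against untreated controls on a 0 (no effect) to 100 (complete control) scale.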
# [12] = tested on: waterhemp; assay: Test E postemergence; assay type: in vivo, Amaranthus rudis; settings: Amaranthus tuberculatus, post-emergence, read-out: Plant response rating, Waterhemp
# Procedure, shortened: as §2
# [13] = tested on: barnyardgrass; assay: Test E postemergence; assay type: in vivo, Echinochloa crus-galli; settings: Echinochloa crus-galli, post-emergence, read-out: Plant response rating, Barnyardgrass
# Procedure, shortened: as §2
# [14] = Postemergence, 31 g ai/ha, scale 0 to 100
# [15] = Postemergence, 62 g ai/ha, scale 0 to 100
# [16] = Postemergence, 125 g ai/ha, scale 0 to 100
# [17] = Postemergence, 250 g ai/ha, scale 0 to 100
# [18] = postemergence, 16 g ai/ha, scale 0 to 100, 0 no effect, 100 complete control
compound,measurement,setting,value
"N#Cc1cccc(Oc2ncc(Cl)cn2)c1-n1cc(C(F)(F)F)cn1 [Compound 58, 3-[(5-chloro-2-pyrimidinyl)oxy]-2-[4-(trifluoromethyl)-1H-pyrazol-1-yl]benzonitrile]",pest or weed control at 31 g/ha,[1]; 31 g ai/ha,20%
same,pest or weed control at 62 g/ha,[1]; 62 g ai/ha,55%
same,pest or weed control at 125 g/ha,[1]; 125 g ai/ha,100%
same,pest or weed control at 250 g/ha,[1]; 250 g ai/ha,100%
same,pest or weed control at 31 g/ha,[2]; 31 g ai/ha,65%
same,pest or weed control at 62 g/ha,[2]; 62 g ai/ha,100%
same,pest or weed control at 125 g/ha,[2]; 125 g ai/ha,100%
same,pest or weed control at 250 g/ha,[2]; 250 g ai/ha,100%
same,pest or weed control at 31 g/ha,[3]; 31 g ai/ha,100%
same,pest or weed control at 62 g/ha,[3]; 62 g ai/ha,100%
same,pest or weed control at 125 g/ha,[3]; 125 g ai/ha,100%
same,pest or weed control at 250 g/ha,[3]; 250 g ai/ha,100%
same,pest or weed control at 31 g/ha,"[4]; 31 g ai/ha, scale 0 (no effect) to 100 (complete control), read-out: Plant response rating, Pigweed",100%
same,pest or weed control at 62 g/ha,"[4]; 62 g ai/ha, scale 0-100, read-out: Plant response rating, Pigweed",100%
same,pest or weed control at 125 g/ha,"[4]; 125 g ai/ha, scale 0-100, read-out: Plant response rating, Pigweed",100%
same,pest or weed control at 250 g/ha,"[4]; 250 g ai/ha, scale 0-100, read-out: Plant response rating, Pigweed",100%
same,pest or weed control at 31 g/ha,"[5]; 31 g ai/ha, scale 0 (no effect) to 100 (complete control), read-out: Plant response rating, Windgrass",100%
same,pest or weed control at 62 g/ha,"[5]; 62 g ai/ha, scale 0-100, read-out: Plant response rating, Windgrass",100%
same,pest or weed control at 125 g/ha,"[5]; 125 g ai/ha, scale 0-100, read-out: Plant response rating, Windgrass",100%
same,pest or weed control at 250 g/ha,"[5]; 250 g ai/ha, scale 0-100, read-out: Plant response rating, Windgrass",100%
same,pest or weed control at 31 g/ha,[6]; 31 g ai/ha,70%
same,pest or weed control at 62 g/ha,[6]; 62 g ai/ha,90%
same,pest or weed control at 125 g/ha,[6]; 125 g ai/ha,100%
same,pest or weed control at 250 g/ha,[6]; 250 g ai/ha,100%
same,pest or weed control at 31 g/ha,[7]; 31 g ai/ha,10%
same,pest or weed control at 62 g/ha,[7]; 62 g ai/ha,25%
same,pest or weed control at 125 g/ha,[7]; 125 g ai/ha,35%
same,pest or weed control at 250 g/ha,[7]; 250 g ai/ha,35%
same,pest or weed control at 31 g/ha,[8]; 31 g ai/ha,100%
same,pest or weed control at 62 g/ha,[8]; 62 g ai/ha,100%
same,pest or weed control at 125 g/ha,[8]; 125 g ai/ha,100%
same,pest or weed control at 250 g/ha,[8]; 250 g ai/ha,100%
same,plant injury at 31 g/ha,[9]; 31 g ai/ha,15%
same,plant injury at 62 g/ha,[9]; 62 g ai/ha,20%
same,plant injury at 125 g/ha,[9]; 125 g ai/ha,30%
same,plant injury at 250 g/ha,[9]; 250 g ai/ha,40%
same,plant injury at 31 g/ha,[10]; 31 g ai/ha,10%
same,plant injury at 62 g/ha,[10]; 62 g ai/ha,15%
same,plant injury at 125 g/ha,[10]; 125 g ai/ha,25%
same,plant injury at 250 g/ha,[10]; 250 g ai/ha,50%
same,pest or weed control at 31 g/ha,[11]; [14],90%
same,pest or weed control at 62 g/ha,[11]; [15],90%
same,pest or weed control at 125 g/ha,[11]; [16],95%
same,pest or weed control at 250 g/ha,[11]; [17],100%
same,pest or weed control at 16 g/ha,[11]; [18],80%
same,pest or weed control at 31 g/ha,[12]; [14],85%
same,pest or weed control at 62 g/ha,[12]; [15],95%
same,pest or weed control at 125 g/ha,[12]; [16],100%
same,pest or weed control at 250 g/ha,[12]; [17],100%
same,pest or weed control at 16 g/ha,[12]; [18],75%
same,pest or weed control at 31 g/ha,[13]; [14],5%
same,pest or weed control at 62 g/ha,[13]; [15],20%
same,pest or weed control at 125 g/ha,[13]; [16],30%
same,pest or weed control at 250 g/ha,[13]; [17],70%
same,pest or weed control at 16 g/ha,[13]; [18],0%
